Assay results taken from ChEMBL document CHEMBL1130039, “1,2-Diarylimidazoles as potent, cyclooxygenase-2 selective, and orally active antiinflammatory agents” (J Med Chem, 1997).
The source made the active and inactive calls. No cut-off for these calls is given here.

Legend:
[1] = species on record: Rattus norvegicus; test: animal or person; type: functional
[2] = target: T1, Prostaglandin G/H synthase 1 (Homo sapiens, UniProt P23219)
[3] = species on record: Rattus norvegicus; test: animal or person; type: functional; remark: listed apart in the source
[4] = species on record: Rattus norvegicus; test: animal or person; type: functional; remark: listed apart in the source
[5] = mouse, in vivo, po, 200 mg/kg
[6] = mouse, in vivo, po, 20 mg/kg
[7] = species on record: Rattus norvegicus; test: animal or person; type: functional; remark: listed apart in the source
[8] = species on record: Rattus norvegicus; test: animal or person; type: functional; remark: listed apart in the source
[9] = species on record: Rattus norvegicus; test: animal or person; conditions: read-out: Inhibition
[10] = species on record: Rattus norvegicus; test: animal or person; type: functional; remark: listed apart in the source
[11] = species on record: Rattus norvegicus; test: animal or person; type: functional; remark: listed apart in the source
[12] = species on record: Rattus norvegicus; test: animal or person; type: functional; remark: listed apart in the source
[13] = target: T1, Prostaglandin G/H synthase 1; remark: listed apart in the source
[14] = target: T2, Prostaglandin G/H synthase 2 (Homo sapiens) (UniProt P35354)
T2 sequence (whole entry): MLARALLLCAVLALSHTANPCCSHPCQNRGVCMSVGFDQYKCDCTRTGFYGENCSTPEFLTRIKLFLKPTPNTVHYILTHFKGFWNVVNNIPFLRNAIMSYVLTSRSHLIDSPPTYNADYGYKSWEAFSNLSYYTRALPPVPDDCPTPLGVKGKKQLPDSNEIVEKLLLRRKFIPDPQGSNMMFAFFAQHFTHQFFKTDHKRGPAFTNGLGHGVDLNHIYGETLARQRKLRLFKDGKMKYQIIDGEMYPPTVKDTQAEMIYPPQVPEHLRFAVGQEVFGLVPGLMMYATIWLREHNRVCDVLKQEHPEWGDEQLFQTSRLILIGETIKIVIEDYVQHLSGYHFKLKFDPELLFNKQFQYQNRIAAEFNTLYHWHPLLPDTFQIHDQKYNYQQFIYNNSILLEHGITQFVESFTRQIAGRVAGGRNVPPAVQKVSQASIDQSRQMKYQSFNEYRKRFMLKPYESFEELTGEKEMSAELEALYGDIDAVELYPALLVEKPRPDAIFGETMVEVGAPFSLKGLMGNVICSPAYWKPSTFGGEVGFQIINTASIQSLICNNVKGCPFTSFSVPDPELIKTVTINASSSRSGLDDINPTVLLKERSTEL

[15] = physchem; conditions: octanol/water
[16] = rat, in vivo, po, 200 mg/kg

T1 sequence (P23219 whole entry): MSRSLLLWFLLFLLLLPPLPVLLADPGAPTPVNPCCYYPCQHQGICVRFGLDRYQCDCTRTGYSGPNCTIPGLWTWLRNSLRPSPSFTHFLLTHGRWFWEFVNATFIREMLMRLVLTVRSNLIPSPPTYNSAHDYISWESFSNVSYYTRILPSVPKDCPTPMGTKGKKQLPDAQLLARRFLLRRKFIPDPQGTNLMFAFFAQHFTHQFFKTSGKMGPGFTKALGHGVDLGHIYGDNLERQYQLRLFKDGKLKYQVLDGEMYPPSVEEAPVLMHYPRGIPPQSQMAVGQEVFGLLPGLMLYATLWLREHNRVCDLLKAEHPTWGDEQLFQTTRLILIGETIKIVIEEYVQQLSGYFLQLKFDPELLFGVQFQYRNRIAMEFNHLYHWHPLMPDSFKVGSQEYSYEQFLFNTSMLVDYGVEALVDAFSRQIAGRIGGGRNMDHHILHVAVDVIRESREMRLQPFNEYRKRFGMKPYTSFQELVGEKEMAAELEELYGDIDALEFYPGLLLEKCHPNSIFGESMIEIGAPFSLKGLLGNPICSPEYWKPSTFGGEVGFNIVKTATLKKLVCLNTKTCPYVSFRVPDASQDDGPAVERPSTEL

Row | Structure (SMILES) | inhibition in vivo at 2 mg/kg [1] | IC50 [2] | further results
1 | CS(=O)(=O)c1ccc(-n2cc(C(F)(F)F)nc2-c2cc(Cl)cc(Cl)c2)cc1 | 5% | – | –
2 | CSc1ccc(-c2nc(C(F)(F)F)cn2-c2ccc(S(C)(=O)=O)cc2)cc1 | 79% | – | –
3 | CS(=O)(=O)c1ccc(-n2cc(CF)nc2-c2ccc(Cl)cc2)cc1 | 36% | > 100 µM | –
4 | CS(=O)(=O)c1ccc(-n2cc(CSc3ccc(Cl)cc3)nc2-c2ccc(Cl)cc2)cc1 | 0% | > 100 µM | –
5 | Cc1cccc(-c2nc(C(F)(F)F)cn2-c2ccc(S(C)(=O)=O)cc2)c1 | 77% | – | ED50 [3]: 46 mg/kg; ED50 [4]: 23 mg/kg; Toxicity [5]: 0; Toxicity [6]: 0
6 | CS(=O)(=O)Cc1cn(-c2ccc(S(C)(=O)=O)cc2)c(-c2ccc(Cl)cc2)n1 | – | > 100 µM | –
7 | COc1cc(-c2nc(C(F)(F)F)cn2-c2ccc(S(N)(=O)=O)cc2)ccc1Cl | 100% | – | –
8 | CS(=O)(=O)c1ccc(-n2cc(C#N)nc2-c2ccc(Cl)cc2)cc1 | 69% | – | –
9 | CN(C)c1cc(-c2nc(C(F)(F)F)cn2-c2ccc(S(C)(=O)=O)cc2)ccc1Cl | 69% | > 100 µM | –
10 | CN(C)c1ccc(-c2nc(C(F)(F)F)cn2-c2ccc(S(C)(=O)=O)cc2)cc1Cl | 87% | – | –
11 | Cc1cccc(Cl)c1-c1nc(C(F)(F)F)cn1-c1ccc(S(C)(=O)=O)cc1 | – | > 100 µM | –
12 | Cc1ccc(-c2nc(C(F)(F)F)cn2-c2ccc(S(C)(=O)=O)cc2)cc1C | 15% | – | –
13 | CS(=O)(=O)c1ccc(-n2ccnc2-c2ccccc2)cc1 | – | > 100 µM | –
14 | COc1ccc(-c2nc(C(F)(F)F)cn2-c2ccc(S(C)(=O)=O)cc2)cc1Cl | 92% | – | ED50 [7]: 35 mg/kg; ED50 [8]: 29 mg/kg
15 | COc1c(Cl)cc(-c2nc(C(F)(F)F)cn2-c2ccc(S(C)(=O)=O)cc2)cc1Cl | 25% | > 100 µM | –
16 | Cc1cn(-c2ccc(S(C)(=O)=O)cc2)c(-c2ccc(Cl)cc2)n1 | – | > 100 µM | inhibition in vivo at 2 mg/kg [9]: 53%
17 | Cc1ccc(-c2nc(C(F)(F)F)cn2-c2ccc(S(N)(=O)=O)cc2)cc1 | 63% | – | –
18 | COc1c(F)cc(-c2nc(C(F)(F)F)cn2-c2ccc(S(N)(=O)=O)cc2)cc1F | 100% | – | –
19 | CS(=O)(=O)c1ccc(-n2cc(C(F)(F)F)nc2-c2cccc(F)c2)cc1 | 88% | – | –

Row | Structure (SMILES) | inhibition in vivo at 2 mg/kg [1] | IC50 [2] | further results
20 | CS(=O)(=O)c1ccc(-n2cc(C(F)(F)F)nc2-c2ccc3c(c2)OCO3)cc1 | 78% | – | –
21 | COc1c(F)cc(-c2nc(C(F)(F)F)cn2-c2ccc(S(C)(=O)=O)cc2)cc1F | 89% | – | ED50 [10]: 26 mg/kg
22 | Cc1ccc(-c2nc(C(F)(F)F)cn2-c2ccc(S(C)(=O)=O)cc2)cc1Cl | 10% | – | ED50 [11]: 20.9 mg/kg; ED50 [3]: 55 mg/kg
23 | COc1cccc(-c2nc(C(F)(F)F)cn2-c2ccc(S(C)(=O)=O)cc2)c1 | 45% | – | –
24 | COc1ccc(-c2nc(C(F)(F)F)cn2-c2ccc(S(N)(=O)=O)cc2)cc1F | 89% | – | ED50 [3]: 36 mg/kg; ED50 [12]: 19 mg/kg
25 | CS(=O)(=O)c1ccc(-n2cc(CN)nc2-c2ccc(Cl)cc2)cc1 | – | > 100 µM | –
26 | NS(=O)(=O)c1ccc(-n2cc(C(F)(F)F)nc2-c2cccc(Br)c2)cc1 | – | 4.5 µM | –
27 | CS(=O)(=O)c1ccc(-n2cc(C(F)(F)F)nc2-c2ccccc2F)cc1 | 97% | – | –
28 | CSc1ccc(-c2nc(C(F)(F)F)cn2-c2ccc(S(C)(=O)=O)cc2)cc1Cl | 0% | – | –
29 | NS(=O)(=O)c1ccc(-n2cc(C(F)(F)F)nc2-c2ccc(F)c(F)c2)cc1 | 83% | – | –
30 | COc1c(Br)cc(-c2nc(C(F)(F)F)cn2-c2ccc(S(C)(=O)=O)cc2)cc1Br | 0% | > 100 µM | –
31 | CS(=O)(=O)c1ccc(-n2cc(C(F)(F)F)nc2-c2ccc(F)c(F)c2)cc1 | 87% | – | –
32 | CS(=O)(=O)c1ccc(-n2cc(C(F)(F)F)nc2-c2cccc(C(F)(F)F)c2)cc1 | 42% | – | –
33 | CSCc1cn(-c2ccc(S(C)(=O)=O)cc2)c(-c2ccc(Cl)cc2)n1 | 10% | > 100 µM | –
34 | Cc1cc(Cl)cc(-c2nc(C(F)(F)F)cn2-c2ccc(S(N)(=O)=O)cc2)c1 | 61% | > 100 µM | –
35 | COc1cc(-c2nc(C(F)(F)F)cn2-c2ccc(S(C)(=O)=O)cc2)ccc1Cl | 0% | – | –
36 | COCc1cccc(-c2nc(C(F)(F)F)cn2-c2ccc(S(C)(=O)=O)cc2)c1 | – | > 100 µM | –
37 | Cc1ccc(F)cc1-c1nc(C(F)(F)F)cn1-c1ccc(S(C)(=O)=O)cc1 | – | > 100 µM | –
38 | CS(=O)(=O)c1ccc(-n2cc(-c3ccccc3)nc2-c2ccc(Cl)cc2)cc1 | 6% | > 100 µM | –

Row | Structure (SMILES) | inhibition in vivo at 2 mg/kg [1] | IC50 [2] | further results
39 | CS(=O)(=O)c1ccc(-n2cc(C(F)(F)F)nc2-c2ccccc2)cc1 | 98% | – | ED50 [3]: 56 mg/kg; ED50 [4]: 20.8 mg/kg
40 | Cc1cn(-c2ccc(F)cc2)c(-c2ccc(S(C)(=O)=O)cc2)n1 | – | > 100 µM | –
41 | Cc1cc(F)cc(-c2nc(C(F)(F)F)cn2-c2ccc(S(C)(=O)=O)cc2)c1 | 87% | – | –
42 | NS(=O)(=O)c1ccc(-n2cc(C(F)(F)F)nc2-c2ccc(F)cc2)cc1 | 98% | 1.9 µM | –
43 | Cc1ccc(-c2nc(C(F)(F)F)cn2-c2ccc(S(C)(=O)=O)cc2)cc1F | 47% | – | –
44 | CS(=O)(=O)c1ccc(-c2[nH]cnc2-c2ccc(F)cc2)cc1 | – | – | NA [13]: inactive; NA [14]: inactive
45 | Cc1cccc(-c2nc(C(F)(F)F)cn2-c2ccc(S(N)(=O)=O)cc2)c1 | 95% | – | –
46 | CS(=O)(=O)c1ccc(-n2cc(COc3ccc(Cl)cc3)nc2-c2ccc(Cl)cc2)cc1 | 15% | > 100 µM | –
47 | CS(=O)(=O)c1ccc(-n2cc(C(F)(F)F)nc2-c2cc(F)cc(C(F)(F)F)c2)cc1 | – | 67 µM | –
48 | CS(=O)(=O)c1ccc(-n2cc(C(F)(F)F)nc2-c2ccc(Cl)cc2)cc1 | 98% | – | ED50 [4]: 9 mg/kg; logP [15]: 3.3
49 | Cc1cc(-c2nc(C(F)(F)F)cn2-c2ccc(S(C)(=O)=O)cc2)ccc1Cl | 64% | – | –
50 | COc1c(C)cc(-c2nc(C(F)(F)F)cn2-c2ccc(S(C)(=O)=O)cc2)cc1C | 29% | 91 µM | –
51 | Cc1ccccc1-c1nc(C(F)(F)F)cn1-c1ccc(S(C)(=O)=O)cc1 | 95% | – | Toxicity [16]: 0; ED50 [3]: 43 mg/kg; ED50 [4]: 17.8 mg/kg
52 | CN(C)c1c(Cl)cc(-c2nc(C(F)(F)F)cn2-c2ccc(S(C)(=O)=O)cc2)cc1Cl | 25% | > 100 µM | –
53 | Cc1cc(-c2nc(C(F)(F)F)cn2-c2ccc(S(C)(=O)=O)cc2)ccc1F | 90% | – | –
54 | CS(=O)(=O)c1ccc(-n2cc(C(F)(F)F)nc2-c2cccc(Br)c2)cc1 | 84% | – | –
55 | Cc1cc(F)cc(-c2nc(C(F)(F)F)cn2-c2ccc(S(N)(=O)=O)cc2)c1 | 80% | – | –
56 | COc1ccc2c(c1)c(CC(=O)O)c(C)n2C(=O)c1ccc(Cl)cc1 [INDOMETHACIN] | – | – | ED50 [12]: 60 mg/kg
